According to patent US20160228489A1, “PHARMACEUTICAL COMPOSITION FOR THE PREVENTION AND THE TREATMENT OF DEGENERATIVE SKIN DISORDERS ESPECIALLY CAUSED BY IONIZING RADIATIONS” (SOLOSALE S.R.L., priority 2011, published 2016):

Tested on: Cultured skin fibroblasts exposed to UV rays
Assay: cultured skin fibroblasts exposed to UV rays: intracellular GSH and cell survival
Assay type: cell-based
Details: for effectiveness for increase of intracellular GSH and of cell survival following exposure to ultraviolet radiation (in words): similar experiments, same concentrations; for cell survival, % (24 h after end of irradiation) / intracellular GSH, % compared to controls (3 h after incubation): fibroblasts exposed to UV rays, 3 h incubation with formulation containing 100 μM S-acyl-glutathione; for cell survival, % (24 h after end of irradiation): UV without compound 10, unexposed control 100; for intracellular GSH, % compared to controls (3 h after incubation): UV without compound 30, unexposed control 100

Compound	effectiveness for increase of intracellular GSH and of cell survival following exposure to ultraviolet radiation (in words)	cell survival, % (24 h after end of irradiation) [%]	intracellular GSH, % compared to controls (3 h after incubation) [%]
Cc1c(C)c2c(c(C)c1O)CCC(C)(C(=O)O)O2 (stereo not shown) [Trolox®, reference compound]	did not produce significant effects	–	–
CCCCC/C=C\C/C=C\C/C=C\C/C=C\CCCC(=O)SC[C@H](NC(=O)CC[C@H](N)C(=O)O)C(=O)NCC(=O)O [arachidonoyl-S-glutathione]	–	100	115
CCCCCCCC/C=C\CCCCCCCC(=O)SC[C@H](NC(=O)CC[C@H](N)C(=O)O)C(=O)NCC(=O)O [oleyl-S-glutathione]	–	35	85
CC/C=C\C/C=C\C/C=C\C/C=C\C/C=C\CCCC(=O)SC[C@H](NC(=O)CC[C@H](N)C(=O)O)C(=O)NCC(=O)O [eicosapentaenoic acid, eicosapentaenoyl-S-glutathione]	results similar to those obtained with linolenic and arachidonic acids	–	–
CCCCC/C=C\C/C=C\CCCCCCCC(=O)SC[C@H](NC(=O)CC[C@H](N)C(=O)O)C(=O)NCC(=O)O [linoleyl-S-glutathione]	–	63	110
vitamin E [reference compound]	did not produce significant effects	–	–
CC/C=C\C/C=C\C/C=C\CCCCCCCC(=O)SCC(NC(=O)CCC(N)C(=O)O)C(=O)NCC(=O)O (stereo not shown) [linolenoyl-S-glutathione]	–	97	115
O=C1O[C@H]([C@@H](O)CO)C(O)=C1O [ascorbic acid, reference compound]	did not produce significant effects	–	–
Oc1ccc(C=Cc2cc(O)cc(O)c2)cc1 [resveratrol, reference compound]	did not produce significant effects	–	–
CC/C=C\C/C=C\C/C=C\C/C=C\C/C=C\C/C=C\CCC(=O)O [docosahexaenoic acid]	results similar to those obtained with linolenic and arachidonic acids	–	–
CC/C=C\C/C=C\C/C=C\CCCCCCCC(=O)N[C@@H](CCC(=O)N[C@@H](CSC(=O)CCCCCCC/C=C\C/C=C\C/C=C\CC)C(=O)NCC(=O)O)C(=O)O [S,N-di-linolenoyl-S-glutathione]	–	98	113
